Test results taken from patent publication US7955816B2, “Design and synthesis of biotinylated probes for N-acyl-ethanolamines” (Universita Degli Studi Di Roma “Tor Vergata”, priority 2006, dated 2011).

Assays:
HaCaT cells [1] = experiment: Fluorescence microscopy of b-AEA transport in HaCaT cells; assay type: cell-based, human
Protocol: HaCaT cells were plated at a density of 6×10^4 cells/ml on collagen-coated (0.5 mg/ml; Sigma, St. Louis, Mo.) glass coverslips (12 mm). Twenty-four hours after plating, cultures were either left untreated (by adding […] biotin EZ-Link Biotin-PEO-Amine, as negative control) or incubated with […] b-AEA for 10 min at 37° C. in a 5% CO2 humidified atmosphere. […] All steps of the immunofluorescence procedure were performed at room temperature. Cells were washed, fixed with 3% paraformaldehyde (Sigma) for 20 min, and then permeabilized with 0.1% Triton X-100 in PBS for 15 min. After a blocking step in Image-iT™ FX signal enhancer (Molecular Probes, Eugene, Oreg.) for 30 min, cells were incubated for 1 h with anti-biotin primary antibody (Molecular Probes, Eugene, Oreg.), diluted 1:50 in Image-iT™ FX signal enhancer. […] N-Piperidino-5-(4-chlorophenyl)-1-(2,4-dichloro-phenyl)-4-methyl-3-pyrazole carboxamide (SR141716), and N-[1(S)-endo-1,3,3-trimethyl-bicyclo[2.2.1]heptan-2-yl]-5-(4-chloro-3-methylphenyl)-1-(4-methyl-benzyl)-pyrazole-3-carboxa-mide (SR144528) were kind gifts from Sanofi-Aventis Recherche (Montpellier, France). OMDM-1 was a kind gift from Dr. S. Marinelli (Experimental Neurology, IRCCS Fondazione Santa Lucia, Rome, Italy).

[2] = tested on: AEA membrane transporter (AMT); experiment: AMT assay in HaCaT cells: uptake of the radiolabelled compound as substrate; assay type: cell-based, human; conditions: intact HaCaT cells
Protocol: (§1) HaCaT cells [Maccarrone et al., 2003], were cultured in Dulbecco's minimal essential supplemented with 10% fetal calf serum and 100 units/mL streptomycin/penicillin at 37° C. in a 5% CO2 humidified atmosphere. Cells were split twice a week at 1:5 ratio using 0.05% trypsin (w/v), 0.02% EDTA (w/v) in phosphate-buffered saline (PBS). These cells were grown in six-well plates (2×10^6 cells/well) and were incubated for 10 min at 37° C. with [^3H]AEA (Perkin-Elmer Life Sciences, Inc.; Boston, Mass.) or [^3H]b-AEA, and were washed three times with cold PBS containing 1% bovine serum albumin. To discriminate noncarrier-mediated from carrier-mediated transport of AEA, control experiments were carried out at 4° C. and the values subtracted from those at 37° C. Then, the cells were solubilized in 1 ml of 0.1 M NaOH and neutralized (50 μl of concentrated HCl), and radioactivity was determined by liquid scintillation counting. Incubations were also carried out with different concentrations of [^3H]AEA or [^3H]b-AEA, as indicated in the figures, to determine the apparent Michaelis-Menten constant (Km) and maximum velocity (Vmax). The effect of different compounds on AEA or b-AEA uptake was determined by adding each substance directly to the incubation medium, at different concentrations. The results are shown in FIG. 2A, Table 1 and Table 2.

HaCaT cells [3] = experiment: HaCaT cell differentiation (cornified envelope formation); assay type: cell-based, human; design: dose or concentration left out as unconfirmed; conditions: 5 days, FIG. 4
Protocol: Cell differentiation was induced by treating HaCaT cells with 12-O-tetradecanoylphorbol 13-acetate (TPA; 10 ng/ml) plus calcium chloride (CaCl2; 1.2 mM) for 5 days, as reported [Maccarrone et al., 2003]. AEA and b-AEA (or vehicle in the controls) were added directly to the culture medium at the same time as TPA plus calcium. Cornified envelope (CE), a hallmark of keratinocyte differentiation, was extracted from HaCaT cells (5×10^6/test) by exhaustive boiling and sonication in 2% SDS, 20 mM dithiothreitol, 0.1 M Tris-HCl pH 8.0, and 0.5 mM EDTA. CEs were then purified on Ficoll gradients and recovered as sonicated fragments, free of soluble keratin/filaggrin proteins, after pelleting through Ficoll as previously described [Maccarrone et al., 2003]. CE formation was quantified by spectrophotometry at 600 nm and was normalized to the protein content.

[4] = molecular target: T1, fatty acid amide hydrolase (FAAH) (Homo sapiens, UniProt O00519); experiment: FAAH activity in HaCaT cell extracts, compound as substrate; assay type: biochemical; conditions: for hydrolysis by FAAH (substrate or not): FIG. 2B
T1 construct: The reaction was initiated by the addition of HaCaT cell extracts; endogenous in cells; host or cells: HaCaT cell extracts
T1 sequence (O00519 1-579): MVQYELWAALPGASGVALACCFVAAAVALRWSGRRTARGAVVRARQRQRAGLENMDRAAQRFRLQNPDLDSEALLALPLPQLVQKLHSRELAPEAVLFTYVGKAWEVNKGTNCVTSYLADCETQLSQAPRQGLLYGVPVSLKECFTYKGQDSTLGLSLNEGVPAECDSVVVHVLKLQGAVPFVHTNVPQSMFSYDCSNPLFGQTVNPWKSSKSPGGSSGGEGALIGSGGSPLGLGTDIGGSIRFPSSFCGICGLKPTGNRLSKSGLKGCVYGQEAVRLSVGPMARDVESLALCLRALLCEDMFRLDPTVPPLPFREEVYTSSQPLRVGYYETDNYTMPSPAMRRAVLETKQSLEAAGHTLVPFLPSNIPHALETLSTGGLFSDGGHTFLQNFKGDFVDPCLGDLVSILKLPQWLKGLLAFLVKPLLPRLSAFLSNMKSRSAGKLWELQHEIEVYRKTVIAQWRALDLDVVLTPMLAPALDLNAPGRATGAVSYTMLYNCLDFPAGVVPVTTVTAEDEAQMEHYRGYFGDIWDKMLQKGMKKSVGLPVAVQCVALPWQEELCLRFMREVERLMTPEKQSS
Protocol: (§2) The assay of fatty acid amide hydrolase (E.C. 3.5.1.4, arachidonoylethanolamide amidohydrolase; FAAH) was performed by measuring the release of [^3H]AA from [^3H]AEA (68 mCi/mmol) or [^3H]b-AEA (10 mCi/mmol) through reversed phase high performance liquid chromatography (RP-HPLC) and on-line scintillation counting. [^3H]AEA or [^3H]b-AEA was added to hydrolase assay buffer (50 mM Tris.HCl, pH 9.0) at the indicated concentrations. The reaction was initiated by the addition of HaCaT cell extracts, was continued at 37° C. for 15 min, and then was stopped by the addition of methanol/chloroform/water, with vortexing. This mixture was centrifuged at 3000×g for 5 min, the lower organic phase was dried and the pellet was resuspended in 20 μl of methanol and subjected to RP-HPLC analysis for AA quantitation. The separations of [^3H]AEA or [^3H]b-AEA from [^3H]AA were carried out on a C18 (5 μm, 3.0×150 mm) column, with a mobile phase of methanol-water-acetic acid (85:15:0.1, v/v/v), at a flow rate of 0.8 ml/min. The amount [^3H]AA formed were calculated from the corresponding peak areas. The effect of different concentrations of b-AEA on [^3H]AEA hydrolysis was ascertained by adding the “cold” compound directly to the assay buffer. FAAH activity was expressed as pmol [^3H]AA released from [^3H]AEA per min per mg protein. The results are shown in FIG. 2B, Table 1 and Table 2.

HaCaT cells [5] = conditions: Maccarrone et al., 2003, cited from earlier work
CB1R [6] = molecular target: T2, CB1R (Mus musculus, UniProt P47746); experiment: [3H]CP55.940 binding in mouse brain membrane fractions; conditions: mouse brain membranes, read-out: IC50 on CB1 receptors
T2 construct: membrane preparations from mouse brain or mouse spleen were used; from tissue; host or cells: mouse brain membrane fractions

CB1R [7] = molecular target: T3, CB1R (Homo sapiens, UniProt P21554); assay type: binding; conditions: HaCaT membranes, FIG. 2C
T3 construct: endogenous in cells; host or cells: HaCaT cell membrane fractions

TRPV1 = molecular target: T4, TRPV1 (Rattus norvegicus, UniProt O35433); experiment: [3H]RTX binding in C6 cells membrane fractions; conditions: competition with [3H]RTX; read-out: IC50 on TRPV1 receptors
T4 construct: membrane fractions isolated from rat neuroblastoma C6 cells were used; endogenous in cells; host or cells: rat C6 cells, membrane fractions

[8] = tested on: AEA membrane transporter (AMT); experiment: Inhibition of [3H]AEA uptake by AMT in intact HaCaT cells; assay type: cell-based, human; conditions: 0.5 μM [3H]AEA, read-out: IC50 for reduction of AEA uptake by AMT
Protocol: as §1

CB2R = molecular target: T5, CB2R (Mus musculus, UniProt P47936); experiment: [3H]CP55.940 binding in mouse spleen membrane fractions; conditions: mouse spleen membranes, read-out: IC50 on CB2 receptors
T5 construct: membrane preparations from mouse brain or mouse spleen were used; from tissue; host or cells: mouse spleen membrane fractions

[9] = molecular target: T1, fatty acid amide hydrolase (FAAH); experiment: Inhibition of [3H]AEA hydrolysis by FAAH in HaCaT cell extracts; assay type: biochemical; conditions: at concentrations up to 10 μM
Protocol: as §2

NAPE-PLD = molecular target: T6, NAPE-PLD (Homo sapiens, UniProt Q6IQ20); experiment: NAPE-PLD activity in HaCaT cell extracts; assay type: biochemical; conditions: at concentrations up to 10 μM
T6 construct: endogenous in cells; host or cells: HaCaT cell extracts
Protocol: HaCaT cell extracts (100 μg/test) were incubated at 37° C. for 30 min with a clear mixture of [^3H]NArPE (ARC; St. Louis, Mo.) and NArPE (“cold” NArPE was synthesized from AA and phosphatidylethanolamine) at a final specific activity of 6.8 nCi/nmol, in 200 μl of 50 mM Tris-HCl, pH 7.4, containing 0.1% Triton X-100. A mixture of chloroform/methanol (2:1, v/v; 600 μl) was added to stop the reaction. Then, the samples were vortexed and centrifuged at room temperature, and the lower organic phase was dried. The pellet was resuspended in 20 μl of methanol and subjected to RP-HPLC coupled to on-line scintillation counting. The separations were carried out on a C18 (5 μm, 3.0×150 mm) column with a mobile phase of methanol-water-acetic acid (85:15:0.1, v/v/v), at a flow rate of 0.8 ml/min. The amount of [^3H]AEA formed was calculated from the corresponding peak areas. The identity of the peaks was assessed also by UV detection of cold standard, recording absorbance at 204 nm. The effect of b-AEA on NAPE-PLD activity was ascertained by adding different concentrations of the biotin-derivative directly to the assay buffer. NAPE-PLD activity was expressed as pmol [^3H]AEA released from [^3H]NArPE per min per mg protein.

T5 sequence (P47936 whole entry): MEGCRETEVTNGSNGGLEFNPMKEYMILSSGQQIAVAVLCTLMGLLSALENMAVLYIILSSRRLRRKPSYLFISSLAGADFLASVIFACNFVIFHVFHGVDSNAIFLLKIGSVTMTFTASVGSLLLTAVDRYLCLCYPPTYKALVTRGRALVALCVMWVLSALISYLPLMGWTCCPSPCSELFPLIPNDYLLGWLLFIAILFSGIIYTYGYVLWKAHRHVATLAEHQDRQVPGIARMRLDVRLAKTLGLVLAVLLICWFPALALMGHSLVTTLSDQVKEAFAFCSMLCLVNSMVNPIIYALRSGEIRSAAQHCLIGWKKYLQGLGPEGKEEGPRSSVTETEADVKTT
T3 sequence (P21554 whole entry): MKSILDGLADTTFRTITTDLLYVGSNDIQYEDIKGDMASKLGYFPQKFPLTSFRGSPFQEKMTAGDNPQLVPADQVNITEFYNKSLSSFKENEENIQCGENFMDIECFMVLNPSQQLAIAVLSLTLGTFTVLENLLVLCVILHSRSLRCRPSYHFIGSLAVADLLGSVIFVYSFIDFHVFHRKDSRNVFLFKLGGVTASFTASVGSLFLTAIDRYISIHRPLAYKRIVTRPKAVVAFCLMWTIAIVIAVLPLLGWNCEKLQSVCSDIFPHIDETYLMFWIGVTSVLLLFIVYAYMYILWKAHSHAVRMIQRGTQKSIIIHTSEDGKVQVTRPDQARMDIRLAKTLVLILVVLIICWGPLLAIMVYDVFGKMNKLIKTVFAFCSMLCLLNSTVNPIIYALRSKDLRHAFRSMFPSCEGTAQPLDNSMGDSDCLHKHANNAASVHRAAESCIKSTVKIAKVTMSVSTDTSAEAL
T6 sequence (Q6IQ20 whole entry): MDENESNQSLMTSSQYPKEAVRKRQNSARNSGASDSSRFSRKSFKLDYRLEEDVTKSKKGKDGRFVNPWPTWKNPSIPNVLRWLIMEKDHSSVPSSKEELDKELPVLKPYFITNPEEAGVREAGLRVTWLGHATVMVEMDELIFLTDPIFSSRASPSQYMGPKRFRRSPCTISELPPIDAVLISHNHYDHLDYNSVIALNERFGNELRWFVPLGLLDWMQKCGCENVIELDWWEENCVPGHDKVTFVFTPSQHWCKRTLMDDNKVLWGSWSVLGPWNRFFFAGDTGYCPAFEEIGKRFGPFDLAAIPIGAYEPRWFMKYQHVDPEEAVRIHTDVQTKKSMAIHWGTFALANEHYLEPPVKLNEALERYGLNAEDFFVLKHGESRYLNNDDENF
T2 sequence (P47746 whole entry): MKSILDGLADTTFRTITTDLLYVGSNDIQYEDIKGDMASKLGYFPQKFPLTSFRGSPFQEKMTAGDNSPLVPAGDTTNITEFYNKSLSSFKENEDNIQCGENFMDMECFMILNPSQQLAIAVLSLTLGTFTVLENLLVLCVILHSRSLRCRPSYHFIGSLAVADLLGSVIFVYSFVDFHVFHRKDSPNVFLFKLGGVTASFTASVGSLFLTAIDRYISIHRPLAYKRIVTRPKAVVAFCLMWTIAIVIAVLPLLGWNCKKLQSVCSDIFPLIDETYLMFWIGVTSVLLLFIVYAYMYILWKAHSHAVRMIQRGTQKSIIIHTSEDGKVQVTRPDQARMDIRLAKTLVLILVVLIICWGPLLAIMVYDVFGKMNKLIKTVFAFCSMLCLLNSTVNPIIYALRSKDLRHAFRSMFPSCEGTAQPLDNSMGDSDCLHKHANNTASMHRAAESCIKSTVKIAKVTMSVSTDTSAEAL
T4 sequence (O35433 whole entry): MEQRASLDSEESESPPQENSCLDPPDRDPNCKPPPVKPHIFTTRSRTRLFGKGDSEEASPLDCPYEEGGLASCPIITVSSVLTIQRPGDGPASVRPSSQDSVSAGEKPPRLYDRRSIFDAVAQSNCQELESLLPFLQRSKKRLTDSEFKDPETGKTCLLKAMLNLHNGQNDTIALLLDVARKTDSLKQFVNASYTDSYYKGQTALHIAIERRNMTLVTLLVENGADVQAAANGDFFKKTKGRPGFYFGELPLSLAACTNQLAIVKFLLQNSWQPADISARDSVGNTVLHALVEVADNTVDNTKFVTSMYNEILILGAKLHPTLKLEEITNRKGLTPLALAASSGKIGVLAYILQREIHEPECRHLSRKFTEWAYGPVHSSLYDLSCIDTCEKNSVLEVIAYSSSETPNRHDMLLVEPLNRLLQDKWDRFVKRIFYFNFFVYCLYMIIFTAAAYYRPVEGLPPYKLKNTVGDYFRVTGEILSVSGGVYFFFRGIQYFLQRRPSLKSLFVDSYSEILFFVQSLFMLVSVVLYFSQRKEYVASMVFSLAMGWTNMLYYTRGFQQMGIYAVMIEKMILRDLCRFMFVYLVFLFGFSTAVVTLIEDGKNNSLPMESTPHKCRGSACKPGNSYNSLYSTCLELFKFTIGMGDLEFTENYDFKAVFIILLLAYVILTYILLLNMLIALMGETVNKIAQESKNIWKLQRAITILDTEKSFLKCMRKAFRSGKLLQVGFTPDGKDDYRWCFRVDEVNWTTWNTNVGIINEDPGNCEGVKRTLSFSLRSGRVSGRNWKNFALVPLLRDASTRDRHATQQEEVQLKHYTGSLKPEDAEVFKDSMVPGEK

CCCCCCCC/C=C\CCCCCCCC(=O)N[C@H](CO)Cc1ccc(O)cc1 [OMDM-1]
effect on b-AEA immunostaining (uptake) of HaCaT cells (HaCaT cells [1]; 5 μM, added 5 min before probe): remarkable decrease of immunostaining

CCCCC/C=C\C/C=C\C/C=C\C/C=C\CCCC(=O)NCCO [AEA, N-arachidonoylethanolamine]
AMT Vmax [2]: 124 ± 8 pmol/min per mg protein | Km [2]: 0.353 ± 0.06 µM | effect on HaCaT cell differentiation (CE formation induced by TPA+calcium) (HaCaT cells [3]): blocked | hydrolysis by FAAH (substrate or not) [4]: hydrolyzed in a concentration-dependent manner | FAAH Vmax ([4]; compound as substrate): 385 ± 25 pmol/min per mg protein | effect on CE formation in HaCaT cells (HaCaT cells [5]; maximum effect at 1 μM): dose-dependently reduces CE formation

Cc1c(C(=O)NN2CCCCC2)nn(-c2ccc(Cl)cc2Cl)c1-c1ccc(Cl)cc1 [SR141716, N-Piperidino-5-(4-chlorophenyl)-1-(2,4-dichloro-phenyl)-4-methyl-3-pyrazole carboxamide]
reversal of the AEA effect on CE formation (HaCaT cells [5]; 0.1 μM): fully reversed

CCCCC/C=C\C/C=C\C/C=C\C/C=C\CCCC(=O)NCCOCCOCCNC(=O)CCCC[C@@H]1SC[C@@H]2NC(=O)N[C@@H]21 [b-AEA, (+)-N-arachidonoyl-biotinyl-3,6-dioxaoctanediamine]
IC50 (CB1R [6]): > 10 µM | binding to CB1 receptors of HaCaT cells (CB1R [7]): did not bind | AMT Vmax [2]: 116 ± 10 pmol/min per mg protein | Km [2]: 0.421 ± 0.088 µM | AMT Vmax ([2]; listed as [^3H]b-AEA): 116 ±10 pmol/min per mg protein | IC50 (TRPV1): > 10 µM | effect on HaCaT cell differentiation (CE formation induced by TPA+calcium) (HaCaT cells [3]): ineffective | IC50 [8]: 0.5 ± 0.1 µM | hydrolysis by FAAH (substrate or not) [4]: not a substrate for FAAH | IC50 (CB2R): > 10 µM | uptake by HaCaT cells seen by immunofluorescence (HaCaT cells [1]; 5 M per test, FIG. 3): cells quickly take up b-AEA | effect on FAAH activity of HaCaT cells [9]: does not affect | effect on NAPE-PLD activity of HaCaT cells (NAPE-PLD): does not affect

NC(=O)c1cccc(-c2cccc(OC(=O)NC3CCCCC3)c2)c1 [URB597]
effect on uptake and intracellular trafficking of b-AEA in HaCaT cells (HaCaT cells [1]; 1 μM, added 5 min before probe): did not affect
